{
  "source": "ChEMBL document CHEMBL4229536",
  "about": "“In vitro and in vivo pharmacokinetic and pharmacodynamic study of MBRI-001, a deuterium-substituted plinabulin derivative as a potent anti-cancer agent” (Bioorg Med Chem, 2018)",
  "key": {"Cytochrome P450 2C9": {"molecular_target": "Cytochrome P450 2C9 (Homo sapiens, UniProt P11712)", "sequence (P11712 whole entry)": "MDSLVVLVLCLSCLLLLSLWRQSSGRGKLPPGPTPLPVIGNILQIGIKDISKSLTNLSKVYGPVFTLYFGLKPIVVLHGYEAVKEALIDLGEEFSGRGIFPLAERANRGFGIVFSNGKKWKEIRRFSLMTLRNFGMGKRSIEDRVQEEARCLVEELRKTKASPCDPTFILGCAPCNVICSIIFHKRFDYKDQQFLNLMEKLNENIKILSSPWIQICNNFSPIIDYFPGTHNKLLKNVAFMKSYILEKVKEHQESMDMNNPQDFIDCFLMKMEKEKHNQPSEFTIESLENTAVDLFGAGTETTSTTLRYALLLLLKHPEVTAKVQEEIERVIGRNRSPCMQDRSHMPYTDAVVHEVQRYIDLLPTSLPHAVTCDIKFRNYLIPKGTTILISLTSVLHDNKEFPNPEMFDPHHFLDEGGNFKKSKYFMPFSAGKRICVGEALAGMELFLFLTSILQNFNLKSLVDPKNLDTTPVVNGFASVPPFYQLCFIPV", "assay": "Inhibition of CYP2C9 in human liver microsomes preincubated for 10 mins followed by NADPH addition measured after 10 mins by LC-MS/MS analysis", "assay_type": "ADME"}, "[1]": {"assay": "Stability in rat plasma at 1 uM after 10 mins by LC-MS/MS analysis", "assay_type": "ADME, cell-free", "conditions": "read-out: Stability"}, "[2]": {"assay": "Stability in rat liver microsomes at 50 uM after 90 mins in presence of NADPH by LC-MS/MS analysis", "assay_type": "ADME, microsome", "conditions": "read-out: Stability"}, "[3]": {"assay": "Protein binding in human plasma at 2 uM after 4 hrs by LC-MS/MS analysis", "assay_type": "ADME, cell-free", "conditions": "read-out: PPB (converted)"}, "[4]": {"assay": "Stability in rat plasma at 1 uM after 60 mins by LC-MS/MS analysis", "assay_type": "ADME, cell-free", "conditions": "read-out: Stability"}, "[5]": {"assay": "Stability in rat liver microsomes at 50 uM after 20 mins in presence of NADPH by LC-MS/MS analysis", "assay_type": "ADME, microsome", "conditions": "read-out: Stability"}, "[6]": {"assay": "Stability in rat plasma at 1 uM after 120 mins by LC-MS/MS analysis", "assay_type": "ADME, cell-free", "conditions": "read-out: Stability"}, "Cytochrome P450 1A2": {"molecular_target": "T1, Cytochrome P450 1A2 (Homo sapiens, UniProt P05177)", "T1 sequence (P05177 whole entry)": "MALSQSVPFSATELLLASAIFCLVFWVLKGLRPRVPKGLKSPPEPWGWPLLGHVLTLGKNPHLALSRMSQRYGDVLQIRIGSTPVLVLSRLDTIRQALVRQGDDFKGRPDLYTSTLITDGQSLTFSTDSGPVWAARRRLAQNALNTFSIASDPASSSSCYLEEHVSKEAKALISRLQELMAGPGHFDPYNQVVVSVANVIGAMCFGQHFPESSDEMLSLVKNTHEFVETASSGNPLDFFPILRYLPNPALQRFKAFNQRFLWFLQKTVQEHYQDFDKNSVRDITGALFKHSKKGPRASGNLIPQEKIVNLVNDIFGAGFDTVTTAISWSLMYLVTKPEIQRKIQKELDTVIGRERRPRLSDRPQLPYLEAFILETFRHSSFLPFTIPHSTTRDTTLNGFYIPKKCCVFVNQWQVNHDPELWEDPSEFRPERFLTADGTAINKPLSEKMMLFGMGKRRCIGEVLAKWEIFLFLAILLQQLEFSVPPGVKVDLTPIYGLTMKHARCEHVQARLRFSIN", "assay": "Inhibition of CYP1A2 in human liver microsomes preincubated for 10 mins followed by NADPH addition measured after 10 mins by LC-MS/MS analysis", "assay_type": "ADME"}, "[7]": {"assay": "Stability in rat liver microsomes at 50 uM after 120 mins in presence of NADPH by LC-MS/MS analysis", "assay_type": "ADME, microsome", "conditions": "read-out: Stability"}, "Cytochrome P450 3A4": {"molecular_target": "Cytochrome P450 3A4 (Homo sapiens, UniProt P08684)", "sequence (P08684 whole entry)": "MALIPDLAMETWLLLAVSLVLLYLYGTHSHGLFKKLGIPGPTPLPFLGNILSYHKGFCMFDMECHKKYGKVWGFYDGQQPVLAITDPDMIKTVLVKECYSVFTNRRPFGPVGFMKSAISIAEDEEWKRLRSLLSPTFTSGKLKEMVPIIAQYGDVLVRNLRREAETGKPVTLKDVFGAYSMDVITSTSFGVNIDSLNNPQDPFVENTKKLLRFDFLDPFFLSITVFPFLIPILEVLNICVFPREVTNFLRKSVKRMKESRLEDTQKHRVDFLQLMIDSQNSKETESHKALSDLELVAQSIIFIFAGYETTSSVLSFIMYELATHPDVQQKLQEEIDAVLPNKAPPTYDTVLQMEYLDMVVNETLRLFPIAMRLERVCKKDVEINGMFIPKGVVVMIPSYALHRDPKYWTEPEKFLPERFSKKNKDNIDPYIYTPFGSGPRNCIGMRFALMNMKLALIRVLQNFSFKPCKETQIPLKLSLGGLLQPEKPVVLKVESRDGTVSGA", "assay": "Inhibition of CYP3A4 in human liver microsomes preincubated for 10 mins followed by NADPH addition measured after 10 mins by LC-MS/MS analysis", "assay_type": "ADME"}, "[8]": {"assay": "Stability in rat liver microsomes at 50 uM after 40 mins in presence of NADPH by LC-MS/MS analysis", "assay_type": "ADME, microsome", "conditions": "read-out: Stability"}, "[9]": {"assay": "Protein binding in Sprague-Dawley rat plasma at 2 uM after 4 hrs by LC-MS/MS analysis", "assay_type": "ADME, cell-free", "conditions": "read-out: PPB (converted)"}, "Cytochrome P450 2D6": {"molecular_target": "Cytochrome P450 2D6 (Homo sapiens, UniProt P10635)", "sequence (P10635 whole entry)": "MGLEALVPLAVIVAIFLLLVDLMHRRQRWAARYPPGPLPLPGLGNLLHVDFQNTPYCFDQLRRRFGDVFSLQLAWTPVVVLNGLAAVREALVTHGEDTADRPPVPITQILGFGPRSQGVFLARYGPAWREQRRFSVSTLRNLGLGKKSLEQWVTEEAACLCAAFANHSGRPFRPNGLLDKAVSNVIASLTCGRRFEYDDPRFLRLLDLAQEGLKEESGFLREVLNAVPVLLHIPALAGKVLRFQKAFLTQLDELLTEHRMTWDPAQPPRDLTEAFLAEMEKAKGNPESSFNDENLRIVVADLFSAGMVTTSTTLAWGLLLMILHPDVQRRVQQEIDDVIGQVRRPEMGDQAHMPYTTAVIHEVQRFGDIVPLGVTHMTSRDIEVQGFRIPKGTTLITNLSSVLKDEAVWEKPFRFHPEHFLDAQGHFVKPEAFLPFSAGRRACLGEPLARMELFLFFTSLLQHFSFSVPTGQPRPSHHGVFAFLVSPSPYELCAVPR", "assay": "Inhibition of CYP2D6 in human liver microsomes preincubated for 10 mins followed by NADPH addition measured after 10 mins by LC-MS/MS analysis", "assay_type": "ADME"}, "[10]": {"assay": "Stability in rat plasma at 1 uM after 5 mins by LC-MS/MS analysis", "assay_type": "ADME, cell-free", "conditions": "read-out: Stability"}, "[11]": {"assay": "Stability in rat plasma at 1 uM after 90 mins by LC-MS/MS analysis", "assay_type": "ADME, cell-free", "conditions": "read-out: Stability"}, "[12]": {"assay": "Half life in rat liver microsomes at 50 uM in presence of NADPH by LC-MS/MS analysis", "assay_type": "ADME, microsome"}, "[13]": {"assay": "Stability in rat plasma at 1 uM after 40 mins by LC-MS/MS analysis", "assay_type": "ADME, cell-free", "conditions": "read-out: Stability"}, "[14]": {"assay": "Stability in rat liver microsomes at 50 uM after 150 mins in presence of NADPH by LC-MS/MS analysis", "assay_type": "ADME, microsome", "conditions": "read-out: Stability"}, "[15]": {"assay": "Stability in rat liver microsomes at 50 uM after 5 mins in presence of NADPH by LC-MS/MS analysis", "assay_type": "ADME, microsome", "conditions": "microsomes, 5 min, 50 µM"}, "[16]": {"assay": "Clearance in rat liver microsomes at 50 uM in presence of NADPH by LC-MS/MS analysis", "assay_type": "ADME, microsome", "conditions": "read-out: CLH"}, "[17]": {"assay": "Stability in rat plasma at 1 uM after 20 mins by LC-MS/MS analysis", "assay_type": "ADME, cell-free", "conditions": "read-out: Stability"}, "Cytochrome P450 2C19": {"molecular_target": "Cytochrome P450 2C19 (Homo sapiens, UniProt P33261)", "sequence (P33261 whole entry)": "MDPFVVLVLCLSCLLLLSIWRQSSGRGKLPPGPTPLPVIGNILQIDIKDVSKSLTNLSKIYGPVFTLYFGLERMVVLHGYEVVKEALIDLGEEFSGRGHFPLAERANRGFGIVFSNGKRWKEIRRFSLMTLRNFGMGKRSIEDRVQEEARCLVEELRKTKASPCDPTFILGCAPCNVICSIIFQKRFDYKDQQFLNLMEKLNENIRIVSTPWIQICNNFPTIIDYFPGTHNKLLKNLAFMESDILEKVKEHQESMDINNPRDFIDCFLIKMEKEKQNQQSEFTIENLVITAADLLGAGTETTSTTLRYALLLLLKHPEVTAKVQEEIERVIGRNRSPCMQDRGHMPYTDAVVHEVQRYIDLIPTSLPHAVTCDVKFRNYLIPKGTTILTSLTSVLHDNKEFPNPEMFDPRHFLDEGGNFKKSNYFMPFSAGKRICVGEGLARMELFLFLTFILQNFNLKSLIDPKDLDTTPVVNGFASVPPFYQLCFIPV", "assay": "Inhibition of CYP2C19 in human liver microsomes preincubated for 10 mins followed by NADPH addition measured after 10 mins by LC-MS/MS analysis", "assay_type": "ADME"}, "[18]": {"assay": "Stability in rat liver microsomes at 50 uM after 270 mins in presence of NADPH by LC-MS/MS analysis", "assay_type": "ADME, microsome", "conditions": "4.5 h"}, "[19]": {"assay": "Stability in rat liver microsomes at 50 uM after 60 mins in presence of NADPH by LC-MS/MS analysis", "assay_type": "ADME, microsome", "conditions": "read-out: Stability"}, "[20]": {"assay": "Protein binding in Beagle dog plasma at 2 uM after 4 hrs by LC-MS/MS analysis", "assay_type": "ADME, cell-free, Canis lupus familiaris", "conditions": "read-out: PPB (converted)"}, "[21]": {"assay": "Stability in rat liver microsomes at 50 uM after 210 mins in presence of NADPH by LC-MS/MS analysis", "assay_type": "ADME, microsome", "conditions": "microsomes, 3.5 h, 50 µM"}, "[22]": {"assay": "Stability in rat liver microsomes at 50 uM after 10 mins in presence of NADPH by LC-MS/MS analysis", "assay_type": "ADME, microsome", "conditions": "microsomes, 10 min, 50 µM"}, "Mus musculus [23]": {"tested_on": "Mus musculus", "assay": "Toxicity in nude mouse xenografted with human NCI-H460 cells assessed as death at 25 to 100 mg/kg, po qd for 14 consecutive days", "assay_type": "organism-based", "conditions": "in vivo"}, "Mus musculus [24]": {"tested_on": "Mus musculus", "assay": "Toxicity in Balb/c mouse assessed as mortality at 20 to 40 mg/kg, iv administered three times in a day every 2 days for 15 consecutive days", "assay_type": "organism-based", "conditions": "in vivo, 48 h"}},
  "data": [
    {"smiles": "CC(C)(C)c1[nH]cnc1/C=c1\\[nH]c(=O)/c(=C/c2ccccc2)[nH]c1=O", "note": "[PLINABULIN]", "values": [
      {"measurement": "IC50", "setting": "Cytochrome P450 2C9", "value": 530, "unit": "nM"},
      {"measurement": "remaining at 10 min, 1 µM", "setting": "[1]", "value": 97.7, "unit": "%"},
      {"measurement": "remaining at 1.5 h, 50 µM", "setting": "[2]", "value": 41.1, "unit": "%"},
      {"measurement": "fraction unbound at 4 h, 2 µM", "setting": "[3]", "value": 0.018},
      {"measurement": "remaining at 1 h, 1 µM", "setting": "[4]", "value": 103, "unit": "%"},
      {"measurement": "remaining at 20 min, 50 µM", "setting": "[5]", "value": 63.5, "unit": "%"},
      {"measurement": "remaining at 2 h, 1 µM", "setting": "[6]", "value": 109, "unit": "%"},
      {"measurement": "IC50", "setting": "Cytochrome P450 1A2", "value": 1240, "unit": "nM"},
      {"measurement": "remaining at 2 h, 50 µM", "setting": "[7]", "value": 29.9, "unit": "%"},
      {"measurement": "IC50", "setting": "Cytochrome P450 3A4", "value": "> 50000", "unit": "nM"},
      {"measurement": "remaining at 40 min, 50 µM", "setting": "[8]", "value": 56.6, "unit": "%"},
      {"measurement": "fraction unbound at 4 h, 2 µM", "setting": "[9]", "value": 0.039},
      {"measurement": "IC50", "setting": "Cytochrome P450 2D6", "value": "> 50000", "unit": "nM"},
      {"measurement": "remaining at 5 min, 1 µM", "setting": "[10]", "value": 95.5, "unit": "%"},
      {"measurement": "remaining at 1.5 h, 1 µM", "setting": "[11]", "value": 110, "unit": "%"},
      {"measurement": "t1/2", "setting": "[12]", "value": 59.34, "unit": "min"},
      {"measurement": "remaining at 40 min, 1 µM", "setting": "[13]", "value": 99, "unit": "%"},
      {"measurement": "remaining at 2.5 h, 50 µM", "setting": "[14]", "value": 29.9, "unit": "%"},
      {"measurement": "Stability", "setting": "[15]", "value": 77.21, "unit": "%"},
      {"measurement": "microsomal CLint at 50 µM", "setting": "[16]", "value": 23.4, "unit": "µL/min/mg"},
      {"measurement": "remaining at 20 min, 1 µM", "setting": "[17]", "value": 98.2, "unit": "%"},
      {"measurement": "IC50", "setting": "Cytochrome P450 2C19", "value": 4230, "unit": "nM"},
      {"measurement": "Stability", "setting": "[18]", "value": 34.94, "unit": "%"},
      {"measurement": "remaining at 1 h, 50 µM", "setting": "[19]", "value": 44.8, "unit": "%"},
      {"measurement": "fraction unbound at 4 h, 2 µM", "setting": "[20]", "value": 0.028},
      {"measurement": "Stability", "setting": "[21]", "value": 29.64, "unit": "%"},
      {"measurement": "Stability", "setting": "[22]", "value": 65.58, "unit": "%"}
    ]},
    {"smiles": "COc1cc2ncnc(Nc3ccc(F)c(Cl)c3)c2cc1OCCCN1CCOCC1", "note": "[GEFITINIB]", "values": [
      {"measurement": "Activity", "setting": "Mus musculus [23]", "value": "Non-Toxic"}
    ]},
    {"smiles": "Nc1ccn([C@@H]2O[C@H](CO)[C@@H](O)C2(F)F)c(=O)n1", "note": "[GEMCITABINE]", "values": [
      {"measurement": "Activity", "setting": "Mus musculus [24]", "value": "Non-Toxic"}
    ]}
  ]
}
